Assay results from patent US9980972B2, “Rho kinase inhibitors for use in treating familial amyotrophic lateral sclerosis” (GEORG-AUGUST-UNIVERSITÄT GÖTTINGEN STIFTUNG ÖFFENTLICHEN …, priority 2012, dated 2018).

Columns and labels:
[1] = tested on: wildtype primary motoneurons in astrocyte/motoneuron co-culture; experiment: Kainic acid toxicity in astrocyte/motoneuron co-culture; assay type: cell-based; conditions: KA exposure 24 h, Fasudil 4 or 20 μM, co-culture with astrocytes
Description: In order to compare the Fasudil neuroprotective effect on motoneurons in vivo with an corresponding in vitro paradigm the inventors subjected wildtype primary motoneurons cultured in a astrocyte/motoneuron co-culture to kainic acid (KA) toxicity.

[2] = tested on: spinal cord astroglia of SOD1 G93A mice; experiment: GFAP positive astrocytes in ventral horn of lumbar spinal cord (astrogliosis); assay type: in vivo, mouse; conditions: for numbers of GFAP positive astroglia: time of death, presymptomatic
Description: After deep anaesthesia, mice were transcardially perfused with PBS solution followed by 4% paraformaldehyde. Spinal cords, sciatic nerves and gastrocnemius muscles were removed. Spinal cords and gastrocnemius muscles were then postfixed for 2 h in 4% paraformaldehyde. Thereafter, the tissue was dehydrated in 30% sucrose overnight and kept at −20° C. until further processing. Coronal sections of the lumbar spinal cord (L3-L6) (20 μm) and horizontal sections of the tibial muscle (35 μm) were prepared using a Leica Kryostat and collected on gelatine-coated glass slides.
Spinal cord sections selected for immunohistochemical processing were first rehydrated. Then antigen-retrieval was performed for 4 h in TBS at 60° C. for later GFAP or Iba1 labeling and for 30 min in sodium citrate (pH 9.0) at 80° C. for later ChAT labeling. After washing for one time in PBS the sections were incubated at room temperature either in PBS and 10% of normal goat serum for later GFAP labeling or in PBS and 5% normal donkey serum for later ChAT labeling to block unspecific binding. The primary antibodies (anti-ChAT 1:100, AB144 P, Millipore; anti-GFAP 1:200, DAKO; anti-Iba1 1:500, WAKO, Osaka, Japan) were applied at 4° C. for one night for GFAP and for three nights for ChAT. The secondary antibodies (Cy3 anti-goat or Cy2/Dylight anti rabbit; both Dianova) were applied on separate sections 1:300 for 1 h at room temperature. Then a nuclear counter-stain with DAPI (4,6-diamidino-2-phenylindole) (Sigma-Aldrich) was performed before mounting in Moviol (Hoechst, Frankfurt, Germany).
Astrogliosis and microgliosis were evaluated by the quantification of GFAP or Iba1 positive cells in the ventral horn of lumbar spinal cord sections, respectively. Again, the area of the ventral horn was defined and GFAP or Iba1 positive cells were manually counted. In the d50 treatment group analyzed at death, a total of 20 mice was counted from the vehicle (3 male, 3 female), Fas30 (3 male, 3 female), Fas100 (3 male, 3 female) and wildtype (1 male, 1 female) group. In the d50 treatment group analyzed at d100, a total of 20 mice was counted from the vehicle (3 male, 3 female), Fas30 (3 male, 3 female), Fas100 (3 male, 3 female) and wildtype (1 male, 1 female) group.
Reactive astrogliosis represents another parameter in the evaluation of histologic manifestation of ALS disease. In human ALS patients, the clinical progression of this neurodegenerative disease seems to be associated with changes in astrocytic cell infiltration in the spinal cord. Therefore, the inventors evaluated the extent of astrogliosis in the lumbar spinal cord by counting the number of GFAP positive astroglial cells in the ventral horn and normalized values to area (FIG. 12).

[3] = CSF analysis after sub-occipital cistern magna puncture; assay type: in vivo, mouse; conditions: oral via drinking water; data not shown
Description: To reach sufficient CSF levels of Fasudil the inventors administered Fasudil (LC Labs, Woburn, USA; product number F-4660) at a low concentration of […] (Fas30) or at a high concentration of 50 mg (Fas100) in 100 ml drinking water. Control groups received the respective amount of isotonic drinking water termed as vehicle (Veh).

[4] = tested on: SOD1 G93A mouse model of ALS; experiment: Disease onset by neurological score in SOD1 G93A mice; assay type: in vivo; conditions: treated from d50 or from d80, differentiated by gender
Description: Neurological Score. Neurological scores were assessed every three days for each mouse from 50 days of age. The neurological score employed a scale of 0 to 4 that had been developed in ALS mouse trials before. Score criteria used to assign each score level were: • 4 Full extension of hind legs away from lateral midline when mouse is suspended by its tail, and mouse can hold this for 2 seconds, suspended 2-3 times. • 3 Collapse or partial collapse of leg extension towards lateral midline (weakness) or trembling of hind legs during tail suspension. • 2 Toes curl under at least twice during walking of 10 cm, or any part of foot is dragging along cage bottom/table. • 1 Rigid paralysis or minimal joint movement, foot not being used for forward motion*. * If score criterion 2 is reached, food pellets are left on bedding and water is additionally placed in a well on the bedding. • 0 Mouse cannot right itself within 30 seconds from either side.
Onset of disease is defined as reaching neurological score 3 (collapse or partial collapse of leg extension towards lateral midline (weakness) or trembling of hind legs during tail suspension).

## O=S(=O)(c1cccc2cnccc12)N1CCCNCC1 [Fasudil, 1-(5-isoquinolinesulfonyl)homopiperazine]
[1]
  survival of KA exposed motoneurons: protected motoneurons from KA induced cell death
[2]; day 100, female, presymptomatic Fas30 vs transgenic vehicle
  GFAP cell number: significantly reduced
[2]; Fas30 female, vehicle female 28.91±4.7
  numbers of GFAP positive astroglia: 31.6±5.9 per 0.2 mm^2
[2]; Fas30 male, vehicle male 31.3±4.7
  numbers of GFAP positive astroglia: 38.2±4.4 per 0.2 mm^2
[2]; Fas100 female, vehicle female 28.91±4.7
  numbers of GFAP positive astroglia: 27.9±4.0 per 0.2 mm^2
[2]; Fas100 male, vehicle male 31.3±4.7
  numbers of GFAP positive astroglia: 29.24±4.5 per 0.2 mm^2
[3]
  blood-brain-barrier crossing (CSF analysis): readily crossed the blood-brain-barrier
[4]
  onset of disease (neurological score 3): no statistically significant difference
